According to patent US7598234B2, “Steroid derived antibiotics” (Brigham Young University, priority 1998, dated 2009):

Tests used:
Type in all cases: cell-based
[1] = system: Gram-negative bacteria; assay: MIC of ester and amide side chain compounds (Table 14); conditions: strain not given
Protocol: (§1) Aliquots of 1 mL of the suspension were added to test tubes containing 1 mL TSB and incrementally varied concentrations of cholic acid derivatives and/or erythromycin or novobiocin. In the sensitization experiments, erythromycin or novobiocin were added 15 minutes later than the cholic acid derivatives. The samples were subjected to stationary incubation at 37° C. for 24 hours. Sample turbidity was determined by measuring absorption at 760 nm (HP 8453 UV-Visible Chemstation, Hewlett Packard). Additionally, an alliquot from each of the samples showing no measurable turbidity was subcultured on TSA plates (alliquots were diluted to provide fewer than 300 CFU). Colonies that grew on the subculture after overnight incubation were counted and the number of CFU/mL in the samples were calculated. The calculated values were compared to the number of CFU/mL in the original inoculum.
(§2) Ester and amide side chains: Additional compounds, for example, compounds with amide and ester side chains, were tested.

[2] = system: Gram-negative bacteria; assay: Sensitization to erythromycin, ester and amide side chain compounds (Table 14); conditions: Table 14; strain not given
Protocol: as §1
(§3) Ability to permeabilize outer membrane: Compounds 11, 106, and 108-114 (FIG. 1) were tested for antibiotic activity. They were also tested for the ability to permeabilize the outer membrane of Gram-negative bacteria, causing sensitization to hydrophobic antibiotics that cannot cross the outer membrane. The permeabilization of the outer membrane was measured using erythromycin and novobiocin.
as §2

[3] = system: Gram-negative bacteria; assay: Sensitization to novobiocin, ester and amide side chain compounds (Table 14); conditions: strain not given
Protocol: as §1, §3, §2

C[C@H](CCCO)[C@H]1CC[C@H]2[C@@H]3[C@H](NC(=O)CN)C[C@@H]4C[C@H](NC(=O)CN)CC[C@]4(C)[C@H]3C[C@H](NC(=O)CN)[C@]12C [Compound 209a]
MIC [1]: >100 µg/mL
a: concentration of cholic acid derivatives required to lower MIC of erythromycin to 1 μg/ML [2]: 25 µg/mL
b: concentration of cholic acid derivatives required to lower MIC of novobiocin to 1 μg/ML [3]: 75 µg/mL

C[C@H](CCCO)[C@H]1CC[C@H]2[C@@H]3[C@H](NC(=O)CCN)C[C@@H]4C[C@H](NC(=O)CCN)CC[C@]4(C)[C@H]3C[C@H](NC(=O)CCN)[C@]12C [Compound 209b]
MIC [1]: >100 µg/mL
a: concentration of cholic acid derivatives required to lower MIC of erythromycin to 1 μg/ML [2]: 40 µg/mL
b: concentration of cholic acid derivatives required to lower MIC of novobiocin to 1 μg/ML [3]: 75 µg/mL

CC(CCCO)C1CCC2C3C(NC(=O)C(N)CCCCN)CC4CC(NC(=O)C(N)CCCCN)CCC4(C)C3CC(NC(=O)C(N)CCCCN)C12C (stereo not drawn) [Compound 209c]
MIC [1]: 85 µg/mL
a: concentration of cholic acid derivatives required to lower MIC of erythromycin to 1 μg/ML [2]: 45 µg/mL
b: concentration of cholic acid derivatives required to lower MIC of novobiocin to 1 μg/ML [3]: 60 µg/mL

C[C@H](CCCN(C)Cc1ccccc1)[C@H]1CC[C@H]2[C@@H]3[C@H](NC(=O)CN)C[C@@H]4C[C@H](NC(=O)CN)CC[C@]4(C)[C@H]3C[C@H](NC(=O)CN)[C@]12C [Compound 210a]
MIC [1]: 80 µg/mL
a: concentration of cholic acid derivatives required to lower MIC of erythromycin to 1 μg/ML [2]: 6 µg/mL
b: concentration of cholic acid derivatives required to lower MIC of novobiocin to 1 μg/ML [3]: 18 µg/mL

C[C@H](CCCN(C)Cc1ccccc1)[C@H]1CC[C@H]2[C@@H]3[C@H](NC(=O)CCN)C[C@@H]4C[C@H](NC(=O)CCN)CC[C@]4(C)[C@H]3C[C@H](NC(=O)CCN)[C@]12C [Compound 210b]
MIC [1]: 100 µg/mL
a: concentration of cholic acid derivatives required to lower MIC of erythromycin to 1 μg/ML [2]: 15 µg/mL
b: concentration of cholic acid derivatives required to lower MIC of novobiocin to 1 μg/ML [3]: 40 µg/mL
